Experimental findings from US20250304571A1, “BIOLOGICALLY ACTIVE COMPOUNDS AND METHODS THEREOF” (Suzhou Keen Therapeutics Co., Ltd., priority 2022, published 2025) are described below.

Like-named read-outs stand apart in the source and are kept apart here.

The subject of the test is 786-O (renal cell carcinoma) cells. Put plainly: Cell viability (CellTiter Glo) assay, inhibition of 786-O cell proliferation. It is filed as cell-based. The note with it: read-out: IC50, inhibition of 786-O cell proliferation. For orientation: ATP-based viability assays read luminescence as a measure of living cells.
Where [1] appears, read: Homo sapiens, 786-0, 786-O cells, 72 hours, CellTiter Glo.
Where [2] appears, read: 786-O cells, 72 hours, CellTiter Glo.

For the molecule `CC(C)N(CC(F)(F)F)C(=N)OCc1ncc2c(n1)N(c1ccc(N3CCCCC3)cc1)C(=O)C21CC1` [Compound E163], the IC50 under setting [1] was in the range of 100 to 500 nM.

For the molecule `CCCCCCOc1ccc(N2C(=O)C3(CC3)c3cnc(COC(=N)N(CC(F)(F)F)C(C)C)nc32)cc1` [Compound E164], the IC50 under setting [1] was less than 100 nM. Take `CC(C)N(CC(F)(F)F)C(=N)OCc1ncc2c(n1)N(c1ccc(O)cc1)C(=O)C21CC1` [Compound E165]: under setting [1], the IC50 was greater than 5000 nM. Regarding `CNc1nc(COC(=N)N(CC(F)(F)F)C(C)C)nc2c1C1(CC1)C(=O)N2c1ccc(N2CCCCC2)nc1` [Compound E166], the IC50 under setting [1] was less than 100 nM. On to `CC(C)N(CC(F)(F)F)C(=N)OCc1nc(N)c2c(n1)N(c1ccc(OC3CCCCC3)nc1)C(=O)C2(C)C` [Compound E167], for which the IC50 under setting [1] was less than 100 nM. Still for that read-out and setting: under `CNc1nc(COC(=N)N(CC(F)(F)F)C(C)C)nc2c1C(C)(C)C(=O)N2c1ccc(OC2CCCCC2)nc1` [Compound E168] stands less than 100 nM. For the molecule `CNc1nc(COC(=N)N(C)C2COC2)nc2c1C(C)(C)C(=O)N2c1ccc(OC2CCCCC2)cc1` [Compound E169], under setting [1], the IC50 lay within 100 to 500 nM. Take `CC1(C)C(=O)N(c2ccc(N3CCOCC3)cc2)c2nc(COC(=N)N3CCCC3C(F)(F)F)nc(N)c21` (centres unmarked) [Compound E170]: the IC50 under setting [1] is less than 100 nM. On to `CNc1nc(COC(=N)N2CCCCC2C(F)(F)F)nc2c(-c3ccc(N4CCOCC4)cc3OC)csc12` (centres unmarked) [Compound E171], for which the IC50 under setting [1] is less than 100 nM. With `CC1(C)C(=O)N(c2ccc(N3CCOCC3)cc2)c2nc(COC(=N)N3CCCCC3C(F)(F)F)nc(N)c21` (centres unmarked) [Compound E172], the IC50 under setting [2] is less than 100 nM.

As to `CNc1nc(COC(=N)N2CCCC2C(F)(F)F)nc2c1C(C)(C)C(=O)N2c1ccc(OC2CCCCC2)cc1` (centres unmarked) [Compound E173], the IC50 under setting [1] is less than 100 nM. As for `CNc1nc(COC(=N)N2CCCCC2C(F)(F)F)nc2c1C(C)(C)C(=O)N2c1ccc(OC2CCCCC2)cc1` (centres unmarked) [Compound E174], the IC50 under setting [1] was less than 100 nM.

Regarding `CCNc1nc(COC(=N)N2CCCC2C(F)(F)F)nc2c1C(C)(C)C(=O)N2c1ccc(N2CCOCC2)cc1` (centres unmarked) [Compound E175], under setting [1], the IC50 is less than 100 nM.

On to `CC(C)Nc1nc(COC(=N)N2CCCC2C(F)(F)F)nc2c1C(C)(C)C(=O)N2c1ccc(N2CCOCC2)cc1` (centres unmarked) [Compound E176, (4-(Isopropylamino)-5,5-dimethyl-7-(4-morpholinophenyl)-6-oxo-6,7-dihydro-5H-pyrrolo[2,3-d]pyrimidin-2-yl)methyl 2-(trifluoromethyl)pyrrolidine-1-carbimidate], for which the IC50 (Homo sapiens, 786-0, 72 h) is less than 100 nM. Regarding `CNc1nc(COC(=N)N2CCCC2C(F)(F)F)nc2c(-c3ccc(N4CCOCC4)cc3)csc12` (centres unmarked) [Compound E179, (4-(Methylamino)-7-(4-morpholinophenyl)thieno[3,2-d]pyrimidin-2-yl)methyl 2-(trifluoromethyl)pyrrolidine-1-carbimidate], under setting [1], the IC50 is less than 100 nM.

Consider `CNc1nc([C@H](C)OC(=N)N2CCC[C@@H]2C(F)(F)F)nc2c1C(C)(C)C(=O)N2c1ccc(N2CCOCC2)cc1` [Compound E180], for which the IC50 under setting [2] was greater than 5000 nM. For the molecule `CNc1nc([C@@H](C)OC(=N)N2CCC[C@@H]2C(F)(F)F)nc2c1C(C)(C)C(=O)N2c1ccc(N2CCOCC2)cc1` [Compound E181], under setting [2], the IC50 is greater than 5000 nM. Still for that read-out and setting: the same measure for `CNc1nc(COC(=N)N2CCCC2C(F)(F)F)nc2c1C(C)(C)C(=O)N2c1ccc2c(c1)CCCO2` (centres unmarked) [Compound E182]: less than 100 nM. Consider `CNc1nc(COC(=N)N2CCC[C@H]2C(F)(F)F)nc2c1C(C)(C)C(=O)N2c1ccc(N2C[C@@H](C)O[C@@H](C)C2)nc1` [Compound E183], for which, under setting [1], the IC50 lay in the range of 100 to 500 nM.

Regarding `CNc1nc(COC(=N)N2CCC[C@@H]2C(F)(F)F)nc2c(-c3ccc(N4CCOCC4)cc3OC)coc12` [Compound E184, (7-(2-Methoxy-4-morpholinophenyl)-4-(methylamino)furo[3,2-d]pyrimidin-2-yl)methyl (R)-2-(trifluoromethyl)pyrrolidine-1-carbimidate], under setting [1], the IC50 is less than 100 nM. Regarding `CNc1nc(COC(=N)N2CCC[C@@H]2C(F)(F)F)nc2c1C(C)(C)C(=O)N2c1ccc2c(c1)CCCO2` [Compound E185], under setting [1], the IC50 was less than 100 nM. For the molecule `C[C@@H]1CN(c2ccc(N3C(=O)C(C)(C)c4c(N)nc(COC(=N)N5CCC[C@@H]5C(F)(F)F)nc43)cn2)C[C@H](C)O1` [Compound E186, (4-amino-7-(6-((2S,6R)-2,6-dimethylmorpholino)pyridin-3-yl)-5,5-dimethyl-6-oxo-6,7-dihydro-5H-pyrrolo[2,3-d]pyrimidin-2-yl)methyl (R)-2-(trifluoromethyl)pyrrolidine-1-carbimidate], the IC50 under setting [1] is less than 100 nM. Same read-out and setting: the same measure for `[2H]C([2H])([2H])Nc1nc(COC(=N)N2CCC[C@@H]2C(F)(F)F)nc2c1C(C)(C)C(=O)N2c1ccc(N2C[C@@H](C)O[C@@H](C)C2)nc1` [Compound E187, (7-(6-((2S,6R)-2,6-Dimethylmorpholino)pyridin-3-yl)-5,5-dimethyl-4-((methyl-d3)amino)-6-oxo-6,7-dihydro-5H-pyrrolo[2,3-d]pyrimidin-2-yl)methyl (R)-2-(trifluoromethyl)pyrrolidine-1-carbimidate]: 100 to 500 nM. For `C[C@@H]1CN(c2ccc(N3C(=O)C(C)(C)c4c(NC5CC5)nc(COC(=N)N5CCC[C@@H]5C(F)(F)F)nc43)cn2)C[C@H](C)O1` [Compound E188, (4-(Cyclopropylamino)-7-(6-((2S,6R)-2,6-dimethylmorpholino)pyridin-3-yl)-5,5-dimethyl-6-oxo-6,7-dihydro-5H-pyrrolo[2,3-d]pyrimidin-2-yl)methyl (R)-2-(trifluoromethyl)pyrrolidine-1-carbimidate], the IC50 under setting [1] is less than 100 nM. `C[C@@H]1CN(c2ccc(N3C(=O)C(C)(C)c4c(N)nc(COC(=N)N(C)CC(F)(F)F)nc43)cn2)C[C@H](C)O1` [Compound E189, (4-amino-7-(6-((2R,6S)-2,6-dimethylmorpholino)pyridin-3-yl)-5,5-dimethyl-6-oxo-6,7-dihydro-5H-pyrrolo[2,3-d]pyrimidin-2-yl)methyl methyl(2,2,2-trifluoroethyl)carbamimidate]: the IC50 under setting [1] was in the range of 100 to 500 nM. Regarding `CCN(CC(F)(F)F)C(=N)OCc1nc(N)c2c(n1)N(c1ccc(N3C[C@@H](C)O[C@@H](C)C3)nc1)C(=O)C2(C)C` [Compound E190], under setting [1], the IC50 fell in the range of 100 to 500 nM. Turning to `CC(C)N(CC(F)(F)F)C(=N)OCc1nc(N)c2c(n1)N(c1ccc(N3C[C@@H](C)O[C@@H](C)C3)nc1)C(=O)C2(C)C` [Compound E191], the IC50 under setting [1] lay within 100 to 500 nM.

Turning to `C#CCN(CC(F)(F)F)C(=N)OCc1nc(N)c2c(n1)N(c1ccc(N3C[C@@H](C)O[C@@H](C)C3)nc1)C(=O)C2(C)C` [Compound E192], under setting [1], the IC50 is 100 to 500 nM. With `C[C@@H]1CN(c2ccc(N3C(=O)C(C)(C)c4c(N)nc(COC(=N)N(CC(F)(F)F)C5CC5)nc43)cn2)C[C@H](C)O1` [Compound E193], the IC50 under setting [1] is 100 to 500 nM.

For `CNc1nc(COC(=N)N2CCC[C@@H]2C(F)(F)F)nc2c(-c3ccc(N4C[C@@H](C)O[C@@H](C)C4)nc3)coc12` [Compound E194], under setting [1], the IC50 lay within 100 to 500 nM. With `C[C@@H]1CN(c2ccc(N3C(=O)C(C)(C)c4c(N)nc(COC(=N)N5CC(F)(F)C(F)(F)C5)nc43)cn2)C[C@H](C)O1` [Compound E195], the IC50 under setting [1] is 100 to 500 nM. For `CC1(C)C(=O)N(c2ccc(N3CCOCC3)cc2)c2nc(COC(=N)N3CCC[C@@H]3C(F)(F)F)nc(NCC(F)F)c21` [Compound E197], the IC50 under setting [1] is less than 100 nM. With `N=C(OCc1nc(NC2CC2)c2c(n1)N(c1ccc(N3CCOCC3)c(F)c1)C(=O)C21CCCC1)N1CCC[C@@H]1C(F)(F)F` [Compound E198], under setting [1], the IC50 is less than 100 nM. For `N=C(OCc1nc(C(F)F)c2c(n1)N(c1ccc(N3CCOCC3)cc1)C(=O)C21CCCC1)N1CCC[C@@H]1C(F)(F)F` [Compound E199], the IC50 under setting [1] fell in the range of 500 to 5000 nM. On the same count and under the same terms, the same measure for `CC1(C)C(=O)N(c2ccc(N3CCOCC3)c(F)c2)c2nc(COC(=N)N3CCC[C@@H]3C(F)(F)F)nc(NC3CC3)c21` [Compound E200]: less than 100 nM; for `CCCNc1nc(COC(=N)N2CCC[C@@H]2C(F)(F)F)nc2c1C(C)(C)C(=O)N2c1ccc(N2CCOCC2)cc1` [Compound E201]: less than 100 nM; for `N=C(OCc1nc2c(c(C(F)(F)F)n1)C1(CCCC1)C(=O)N2c1ccc(N2CCOCC2)cc1)N1CCC[C@@H]1C(F)(F)F` [Compound E202]: 500 to 5000 nM. For `C[C@@H]1CN(c2ccc(N3C(=O)C(C)(C)c4c(NCC(F)F)nc(COC(=N)N5CCC[C@@H]5C(F)(F)F)nc43)cc2)C[C@H](C)O1` [Compound E203], for the setting “Homo sapiens, 786-0, 72 h”, the IC50 is 100 to 500 nM.

With `N=C(OCc1nc(NC2CC2)c2c(n1)N(c1cnc(N3CCCCC3)nc1)C(=O)C21CCCC1)N1CCC[C@@H]1C(F)(F)F` [Compound E204], the IC50 under setting [1] was less than 100 nM. For `N=C(OCc1nc(NC2CC2)c2c(n1)N(c1ccc(F)c(F)c1)C(=O)C21CCCC1)N1CCC[C@@H]1C(F)(F)F` [Compound E205], the IC50 under setting [1] is less than 100 nM. For the molecule `N=C(OCc1nc(NC2CC2)c2c(n1)N(c1cc(F)cc(F)c1)C(=O)C21CCCC1)N1CCC[C@@H]1C(F)(F)F` [Compound E206], under setting [2], the IC50 was in the range of 100 to 500 nM. Regarding `COc1cc(F)ccc1N1CC(C)(C)c2c(NC3CC3)nc(COC(=N)N3CCC[C@@H]3C(F)(F)F)nc21` [Compound E207], under setting [1], the IC50 is less than 100 nM. As for `COc1cc(F)ccc1N1CC(C)(C)c2c(NCC(F)(F)F)nc(COC(=N)N3CCC[C@@H]3C(F)(F)F)nc21` [Compound E208], under setting [1], the IC50 was less than 100 nM. On to `N=C(OCc1nc(N)c2c(n1)N(c1ccc(F)c(F)c1)C(=O)C21CCCC1)N1CCC[C@@H]1C(F)(F)F` [Compound E209], for which the IC50 under setting [1] was less than 100 nM.

As to `CC(C)Nc1nc(COC(=N)N2CCC[C@@H]2C(F)(F)F)nc2c1C1(CCCC1)C(=O)N2c1cnc(N2CCCCC2)nc1` [Compound E211], the IC50 (Homo sapiens, 786-0, 72 h) is less than 100 nM. On the same count and under the same terms, the same measure for `CC(C)Nc1nc(COC(=N)N2CCC[C@@H]2C(F)(F)F)nc2c1C1(CCCC1)C(=O)N2c1ccc(F)c(F)c1` [Compound E212]: less than 100 nM. `CS(=O)(=O)c1ccc(N2C(=O)C3(CCCC3)c3c(N)nc(COC(=N)N4CCC[C@@H]4C(F)(F)F)nc32)cc1` [Compound E213]: the IC50 under setting [1] is 100 to 500 nM.
